Reference: US12655153B2, “Solid forms of a HBV core protein allosteric modifier” (Hoffmann-La Roche Inc., priority 2019, dated 2026)
Converted amounts (≈) assume the structure as drawn. “Also recorded” adds a separate entry of the source.

Key:
[1] = Apparent solubility study in pH buffers (50 mM), 25° C., 24 hours, HPLC; assay type: physicochemical; conditions: for Solubility: 25° C.; for Final pH: after 24 hours; for Solubility compared with Form A: pH7 and pH9
Description: Apparent solubility was determined by suspending 5 mg of compound (I) in different bio-relevant media including pH buffers (50 mM). The suspensions were equilibrated at 25° C. for 24 hours. The suspensions were then filtered through a 0.22 μm PVDF filter into a 2-mL HPLC vial. The quantification of the filtrate was conducted by HPLC with reference to a standard solution.

[2] = Physical stability of solid forms (general statements, accelerated and long term stability testing); assay type: physicochemical; conditions: conditions not stated
Source text: Developing novel forms of compound (I) with good processability or acceptable aqueous solubility is one of the objectives of current invention. Some novel solid forms enhance the developability of compound (I) fundamentally. The physical stability of drug substances is an integral part of the systematic approach to the stability evaluation of pharmaceuticals due to its potential impacts on drug chemical stability performance and safety. The greater the stability is, the longer the shelf life could be. Therefore, the accelerated and long term stability testing used in this invention could be used to predict shelf lives.

[3] = Conversion of solid form in SGF; assay type: physicochemical
Source text: (§1) Therefore, sodium salt Form J is suitable to be formulated as sustained-release oral formulation. […] Therefore, sodium salt Form J could be developed as enteric release formulations to avoid conversion in SGF and achieve higher solubility in intestinal environment for better absorption.

In vivo PK study = experiment: In vivo PK study
Source text: as §1

[4] = Stability of solid forms, stability chamber 40° C. and 75%-RH, XRPD after 1 month; assay type: physicochemical; conditions: 40° C./75%-RH
Description: 40 mg of compound (I) in different solid forms were stored in a stability chamber with temperature and humidity controlled at 40° C. and 75%-RH, respectively. After 1 month, the samples were analyzed by XRPD to check their solid form and compared with their initial solid form.

[5] = Apparent solubility in FaSSIF over time; assay type: physicochemical
Source text: as §1

[6] = Apparent solubility in purified water, 25° C., 24 hours, HPLC, residue by XRPD; assay type: physicochemical; conditions: for Solubility / Final pH / XRPD of residue: purified water; for Solubility: 25° C., 24 hours; for Final pH / XRPD of residue: after 24 hours
Description: Apparent solubility in water was determined by suspending 5 mg of compound (I) in purified water. The suspensions were equilibrated at 25° C. for 24 hours. The suspensions were then filtered through a 0.22 μm PVDF filter into a 2-mL HPLC vial. The quantitation of the filtrate was conducted by HPLC with reference to a standard solution. The solids were analyzed by XRPD.

[7] = Stability of solid forms, stability chamber 25° C. and 60%-RH, XRPD after 1 month; assay type: physicochemical; conditions: 25° C./60%-RH
Description: 20 mg of compound (I) in different solid forms were stored in a stability chamber with temperature and humidity controlled at 25° C. and 60%-RH. After 1 month, the samples were analyzed by XRPD to check their solid form and compared with their initial solid form.

[8] = listed as Example 3, Form A of compound (I)
[9] = listed as Example 16, Form H of compound (I)
[10] = listed as Example 1, Form D of compound (I)

For `CCOC(=O)C1=C(CN2CCN3C(=O)N(CC(C)(C)C(=O)O)C[C@@H]3C2)NC(c2nccs2)=N[C@H]1c1cccc(F)c1C` [Form Q, 3-[(8aS)-7-[[(4S)-5-ethoxycarbonyl-4-(3-fluoro-2-methyl-phenyl)-2-thiazol-2-yl-1,4-dihydropyrimidin-6-yl]methyl]-3-oxo-5,6,8,8a-tetrahydro-1H-imidazo[1,5-a]pyrazin-2-yl]-2,2-dimethyl-propanoic acid], the Solubility ([1]; pH 1 buffer, 24 hours, listed as Example 24, potassium salt Form Q of compound (I)) was 1560 µg/mL, the “Final pH” value ([1]; pH 1 buffer, listed as Example 24, potassium salt Form Q of compound (I)) was 1.1 and the “Final pH” value ([1]; pH 3 buffer, listed as Example 24, potassium salt Form Q of compound (I)) was 3.49. For the same compound, the “Final pH” value ([1]; pH 5 buffer, listed as Example 24, potassium salt Form Q of compound (I)) was 5.17, the Solubility ([1]; pH 7 buffer, 24 hours, listed as Example 24, potassium salt Form Q of compound (I)) was 3580 µg/mL and the “Final pH” value ([1]; pH 7 buffer, listed as Example 24, potassium salt Form Q of compound (I)) was 6.97. The Solubility ([1]; pH 9 buffer, 24 hours, listed as Example 24, potassium salt Form Q of compound (I)) was >10000 µg/mL and the “Final pH” value ([1]; pH 9 buffer, listed as Example 24, potassium salt Form Q of compound (I)) was 8.71.
For `CCOC(=O)C1=C(CN2CCN3C(=O)N(CC(C)(C)C(=O)O)C[C@@H]3C2)NC(c2nccs2)=N[C@H]1c1cccc(F)c1C` [Form Amorphous, 3-[(8aS)-7-[[(4S)-5-ethoxycarbonyl-4-(3-fluoro-2-methyl-phenyl)-2-thiazol-2-yl-1,4-dihydropyrimidin-6-yl]methyl]-3-oxo-5,6,8,8a-tetrahydro-1H-imidazo[1,5-a]pyrazin-2-yl]-2,2-dimethyl-propanoic acid], the “Physical / solid state stability” value [2] was “significantly improved stability compared with Form D”.
For `CCOC(=O)C1=C(CN2CCN3C(=O)N(CC(C)(C)C(=O)O)C[C@@H]3C2)NC(c2nccs2)=N[C@H]1c1cccc(F)c1C` [Form J, 3-[(8aS)-7-[[(4S)-5-ethoxycarbonyl-4-(3-fluoro-2-methyl-phenyl)-2-thiazol-2-yl-1,4-dihydropyrimidin-6-yl]methyl]-3-oxo-5,6,8,8a-tetrahydro-1H-imidazo[1,5-a]pyrazin-2-yl]-2,2-dimethyl-propanoic acid], the “Solubility compared with other crystal forms of the parent compound (I)” value [1] was “improved solubility compared with some of other crystal forms”, the Solubility ([1]; pH 1 buffer, 24 hours, listed as Example 15, sodium salt Form J of compound (I)) was 1510 µg/mL and the “Final pH” value ([1]; pH 1 buffer, listed as Example 15, sodium salt Form J of compound (I)) was 1.12. For the same compound, the Solubility ([1]; pH 3 buffer, 24 hours, listed as Example 15, sodium salt Form J of compound (I)) was 16 µg/mL, the “Final pH” value ([1]; pH 3 buffer, listed as Example 15, sodium salt Form J of compound (I)) was 3.53 and the Solubility ([1]; pH 5 buffer, 24 hours, listed as Example 15, sodium salt Form J of compound (I)) was 2.8 µg/mL. For the same compound, the “Final pH” value ([1]; pH 5 buffer, listed as Example 15, sodium salt Form J of compound (I)) was 5.22, the “Solubility compared with Form A” value [1] was “higher solubility than Form A at pH7 and pH9” and the Solubility ([1]; pH 7 buffer, 24 hours, listed as Example 15, sodium salt Form J of compound (I)) was 690 µg/mL. The “Final pH” value ([1]; pH 7 buffer, listed as Example 15, sodium salt Form J of compound (I)) was 7.34, the Solubility ([1]; pH 9 buffer, 24 hours, listed as Example 15, sodium salt Form J of compound (I)) was >10000 µg/mL and the “Final pH” value ([1]; pH 9 buffer, listed as Example 15, sodium salt Form J of compound (I)) was 8.80. For the same compound, the “Solid form conversion” value [3] was “converted to HCl salt immediately”, the “Absorption rate to reach Cmax” value (In vivo PK study) was “much slower absorption rate to reach Cmax” and the “Physical / solid state stability” value ([2]; listed as sodium salt Form J) was “improved stability compared with Form D”. For the same compound, the “Solid form stability compared with Form D” value [4] was “better solid form stability than the original Form D”, the “Physical stability (solid form by XRPD)” value ([4]; listed as Example 15, sodium salt Form J of compound (I)) was “no solid form change” and the “Apparent solubility in FaSSIF” value [5] was “increased with time”.
For `CCOC(=O)C1=C(CN2CCN3C(=O)N(CC(C)(C)C(=O)O)C[C@@H]3C2)NC(c2nccs2)=N[C@H]1c1cccc(F)c1C` [Form A, 3-[(8aS)-7-[[(4S)-5-ethoxycarbonyl-4-(3-fluoro-2-methyl-phenyl)-2-thiazol-2-yl-1,4-dihydropyrimidin-6-yl]methyl]-3-oxo-5,6,8,8a-tetrahydro-1H-imidazo[1,5-a]pyrazin-2-yl]-2,2-dimethyl-propanoic acid], the solubility at 24 h ([1]; pH 1 buffer (50 mM), 25 °C, pH 1, aqueous buffer, thermodynamic from solid, pH 1 buffer, 24 hours) was 940 µg/mL (≈ 1570 µM), the “Final pH” value ([1]; pH 1 buffer, listed as Example 3, Form A of compound (I)) was 1.05 and the Solubility ([1]; pH 3 buffer, 24 hours, listed as Example 3, Form A of compound (I)) was 66 µg/mL (≈ 110 µM). For the same compound, the “Final pH” value ([1]; pH 3 buffer, listed as Example 3, Form A of compound (I)) was 2.97, the Solubility ([1]; pH 5 buffer, 24 hours, listed as Example 3, Form A of compound (I)) was 4 µg/mL (≈ 6.68 µM) and the “Final pH” value ([1]; pH 5 buffer, listed as Example 3, Form A of compound (I)) was 4.99. The Solubility ([1]; pH 7 buffer, 24 hours, listed as Example 3, Form A of compound (I)) was 72 µg/mL (≈ 120 µM), the “Final pH” value ([1]; pH 7 buffer, listed as Example 3, Form A of compound (I)) was 6.98 and the Solubility ([1]; pH 9 buffer, 24 hours, listed as Example 3, Form A of compound (I)) was 4820 µg/mL (≈ 8050 µM). The “Final pH” value ([1]; pH 9 buffer, listed as Example 3, Form A of compound (I)) was 8.46, the Solubility [6, 8] was 50 µg/mL (≈ 83.5 µM) and the “Final pH” value [6, 8] was 6.97. The XRPD of residue [6, 8] was “Form A”.
In the case of `CCOC(=O)C1=C(CN2CCN3C(=O)N(CC(C)(C)C(=O)O)C[C@@H]3C2)NC(c2nccs2)=N[C@H]1c1cccc(F)c1C` [Form H, 3-[(8aS)-7-[[(4S)-5-ethoxycarbonyl-4-(3-fluoro-2-methyl-phenyl)-2-thiazol-2-yl-1,4-dihydropyrimidin-6-yl]methyl]-3-oxo-5,6,8,8a-tetrahydro-1H-imidazo[1,5-a]pyrazin-2-yl]-2,2-dimethyl-propanoic acid], the Solubility ([1]; pH 1 buffer, 24 hours, listed as Example 16, Form H of compound (I)) is reported as 1581 µg/mL (≈ 2640 µM), the “Final pH” value ([1]; pH 1 buffer, listed as Example 16, Form H of compound (I)) is reported as 1.08 and the Solubility ([1]; pH 3 buffer, 24 hours, listed as Example 16, Form H of compound (I)) is reported as 56 µg/mL (≈ 93.5 µM). The “Final pH” value ([1]; pH 3 buffer, listed as Example 16, Form H of compound (I)) was 3.01, the Solubility ([1]; pH 5 buffer, 24 hours, listed as Example 16, Form H of compound (I)) was 6 µg/mL (≈ 10 µM) and the “Final pH” value ([1]; pH 5 buffer, listed as Example 16, Form H of compound (I)) was 5.03. For the same compound, the “Solubility compared with Form A” value [1] was “higher solubility than Form A at pH7 and pH9”, the Solubility ([1]; pH 7 buffer, 24 hours, listed as Example 16, Form H of compound (I)) was 244 µg/mL (≈ 408 µM) and the “Final pH” value ([1]; pH 7 buffer, listed as Example 16, Form H of compound (I)) was 6.97. For the same compound, the Solubility ([1]; pH 9 buffer, 24 hours, listed as Example 16, Form H of compound (I)) was >10000 µg/mL, the “Final pH” value ([1]; pH 9 buffer, listed as Example 16, Form H of compound (I)) was 8.90 and the Solubility [6, 9] was 453 µg/mL (≈ 757 µM). The “Final pH” value [6, 9] was 7.35, the XRPD of residue [6, 9] was “Form H” and the “Water solubility compared with Form A” value ([6]; water) was “unexpected higher water solubility than Form A; also recorded: significant higher water solubility than the anhydrate Form A”. For the same compound, the “Physical / solid state stability” value [2] was “improved stability compared with Form D; also recorded: acceptable solid state stability”, the “Stability compared with Form D” value [7] was “better stability than the original Form D” and the “Physical stability (solid form by XRPD)” value [7, 9] was “no solid form change”.
In the case of `CCOC(=O)C1=C(CN2CCN3C(=O)N(CC(C)(C)C(=O)O)C[C@@H]3C2)NC(c2nccs2)=N[C@H]1c1cccc(F)c1C` [Form D, 3-[(8aS)-7-[[(4S)-5-ethoxycarbonyl-4-(3-fluoro-2-methyl-phenyl)-2-thiazol-2-yl-1,4-dihydropyrimidin-6-yl]methyl]-3-oxo-5,6,8,8a-tetrahydro-1H-imidazo[1,5-a]pyrazin-2-yl]-2,2-dimethyl-propanoic acid], the “Physical / solid state stability” value [2] is reported as “physically unstable”, the “Physical stability (solid form by XRPD)” value [7, 10] is reported as “solid form change” and the “Solid form stability compared with Form D” value [4] is reported as “better solid form stability than the original Form D”. For the same compound, the “Physical stability (solid form by XRPD)” value [4, 10] was “solid form change”.
